Test results published in patent US4124598A, “Psoralens” (Hoffmann-La Roche Inc., priority 1976, dated 1978).
Where a name gives a salt, the structure may show the parent alone. Read-outs that look alike come from different tables or passages of the source.

Columns and labels:
[1] = Hydrolysis in aqueous solution; type: physicochemical
[2] = test system: Calf thymus DNA; assay: Equilibrium dialysis, non-covalent binding to DNA
Experimental: (§1) In order to establish the dissociation constants from DNA and RNA, the non-covalent binding was ascertained. Non-covalent binding determines the presence of the psoralen within the nucleic acid helix. Its presence is determined in the absence of any radiant energy. As noted before, radiant energy is necessary to activate the psoralen covalent binding reaction with nucleic acid base pairs.
(§2) To determine the non-covalent binding, Calf thymus DNA (Sigma Type I) was dissolved in a 0.01 M Tris 0.001 M EDTA pH 8.5 buffer at a concentration of 25 ug/ml. A quantity of this DNA solution was placed in a dialysis bag (pretreated by boiling in NaHCO3), and the various tritiated derivatives were added inside the bag in half the cases and outside the bag in the other half. The molar ratio of psoralen molecules to base pairs was approximately 1:25. The bags were placed in vials filled with 18 ml of buffer and put on a shaker for 48-60 hours. After this period, radioactivity was determined both inside and outside the bags and the optical density of the DNA solution measured. From this information, and the specific activity of each derivative, the amount of drug non-covalently bound to the DNA was determined. Binding of the derivatives to Drosophila melanogaster ribosomal RNA was measured in exactly the same manner.
(§3) The units of the dissociation constants are moles/liter. Solubilities and molar extinction coefficients (ε) were obtained in pure water, the equilibrium constants (KD) in 0.01 M Tris.

[3] = biological target: Drosophila melanogaster ribosomal RNA; assay: Equilibrium dialysis, non-covalent binding to RNA
Experimental: as §1, §2, §3

[4] = Solubility in pure water; type: physicochemical; settings: for solubility: pure water
Text: In order to study solubilities and dissociation constants, it is most convenient to prepare tritiated derivatives of the psoralen compounds. Thus, well-known radiation counting methods may be utilized to monitor the presence of the psoralens in solutions, or in nucleic acids.
as §3

[5] = Molar extinction coefficient in pure water; type: physicochemical
Text: as §3

[6] = test system: DNA (calf thymus); assay: Low intensity photoaddition (covalent binding) to DNA; settings: for A (footnote 1, shown as drawing 9) / B = percent of added psoralen covalently bound: 25 μg/ml DNA, psoralen:base pair 1:3
Experimental: (§4) The covalent binding of the psoralens to DNA and RNA was studied. To achieve covalent binding, it is necessary to supply radiant energy (light) to the binding sites. These studies were carried out as follows:
(§5) The DNA and RNA used in the covalent binding studies have been described previously. Samples of each nucleic acid were prepared at a concentration of 25 ug/ml in 0.01 m Tris 0.001 M EDTA buffer. The radioactive-psoralen derivatives were added in a ratio of one psoralen for every three base pairs. The irradiation was carried out in one of the two following devices.
The low intensity irradiations were performed with a modified slide projector which was fitted with a 400 watt General Electric mercury vapor lamp (H 400 A 33-1/T16). The image of the arc was focused on the same cell, jacketed by a cobaltous nitrate solution which was also used for the high intensity irradiations. The light intensity delivered to the sample in this device was 4 to 6 mw/cm^2. The high intensity irradiations were carried out in a device containing two of the sam 400 watt General Electric mercury vapor lamps which were mounted on either side of a double walled sample chamber at a distance between centers of 4.0 cm. The chamber was cooled to 10° C. by continuous circulation of a temperature regulated solution of cobaltous nitrate (40% w/w). The cobalt solution served as an ultraviolet filter which allowed a maximum transmittance of 365 nm light and a window from approximately 340-380 nm. The intensity of the light at the surface of the inner sample chamber was approximately 100 mw/cm^2. The nucleic acid-psoralen mixture was placed in the inner chamber where it was continuously stirred throughout the irradiation. […] Each aliquot was then extracted twice with chloroform/iso-amyl alcohol (24:1) to remove unreacted psoralen followed by exhaustive dialysis against 0.01 M Tris, 0.001 M EDTA buffer. The successful extraction of unbound psoralen by the chloroform-isoamyl alcohol required the aqueous phase to be at least 0.15 M in NaCl. Finally, the optical density of the nucleic-acid psoralen mixture was taken and its radioactivity determined, thus giving the amount of derivative covalently bound to the DNA or RNA. Taking samples, at spaced time intervals also permitted an assessment of the kinetics of the covalent binding.

[7] = test system: DNA (calf thymus); assay: High intensity photoaddition (covalent binding) to DNA; settings: 25 μg/ml DNA, psoralen:base pair 1:3
Experimental: as §4, §5
(§6) The low intensity irradiations were performed with a modified slide projector which was fitted with a 400 watt General Electric mercury vapor lamp (H 400 A 33-1/T16). The image of the arc was focused on the same cell, jacketed by a cobaltous nitrate solution which was also used for the high intensity irradiations. The light intensity delivered to the sample in this device was 4 to 6 mw/cm^2. The high intensity irradiations were carried out in a device containing two of the sam 400 watt General Electric mercury vapor lamps which were mounted on either side of a double walled sample chamber at a distance between centers of 4.0 cm. The chamber was cooled to 10° C. by continuous circulation of a temperature regulated solution of cobaltous nitrate (40% w/w). The cobalt solution served as an ultraviolet filter which allowed a maximum transmittance of 365 nm light and a window from approximately 340-380 nm. The intensity of the light at the surface of the inner sample chamber was approximately 100 mw/cm^2. The nucleic acid-psoralen mixture was placed in the inner chamber where it was continuously stirred throughout the irradiation. Aliquots of each solution (derivative plus nucleic acid) were taken at 20, 40 and 60 minutes. Each aliquot was then extracted twice with chloroform/iso-amyl alcohol (24:1) to remove unreacted psoralen followed by exhaustive dialysis against 0.01 M Tris, 0.001 M EDTA buffer. The successful extraction of unbound psoralen by the chloroform-isoamyl alcohol required the aqueous phase to be at least 0.15 M in NaCl. Finally, the optical density of the nucleic-acid psoralen mixture was taken and its radioactivity determined, thus giving the amount of derivative covalently bound to the DNA or RNA. Taking samples, at spaced time intervals also permitted an assessment of the kinetics of the covalent binding.

[8] = test system: RNA (Drosophila melanogaster ribosomal RNA); assay: High intensity photoaddition (covalent binding) to RNA; settings: 25 μg/ml RNA, psoralen:base pair 1:3
Experimental: as §4, §5, §6

[9] = test system: vesicular stomatitis virus; type: cell-based, Vesicular stomatitis virus Indiana strain
[10] = test system: DNA; assay: Reactivity with DNA (general statement); type: binding, calf
Experimental: as §4, §5
as §6, with “Each aliquot was then extracted twice with chloroform/iso-amyl alcohol (24:1) to remove unreacted psoralen followed by exhaustive dialysis against 0.01 M Tris, 0.001 M EDTA buffer. The successful extraction of unbound psoralen by the chloroform-isoamyl alcohol required the aqueous phase to be at least 0.15 M in NaCl.” left out, “Taking samples, at spaced time intervals also permitted an assessment of the kinetics of the covalent binding.” left out

[11] = test system: Calf thymus DNA; settings: calculated from literature results, cited from earlier work
[12] = biological target: Drosophila melanogaster ribosomal RNA; settings: calculated from literature results, cited from earlier work
[13] = calculated from literature results, cited from earlier work
[14] = 0.01 M Tris, non-covalent binding
[15] = saturated solution, occupied/unoccupied binding sites

## Cc1oc2c(C)c3oc(=O)cc(C)c3cc2c1CCl [4'-chloromethyl-4,5',8-trimethyl psoralen]
[1]
  hydrolysis of the chloromethyl substituent in aqueous solution: readily hydrolysed in aqueous solution

## Cc1oc2c(C)c3oc(=O)cc(C)c3cc2c1CN [4'-aminomethyl-4,5',8-trimethyl psoralen hydrochloride]
[2]; [14]
  Kd: 6.6 µM
[2]; calculated, DNA
  times more effective at reaching state of site saturation: 10^4 times
[2]; [15]
  (PS)/(S) for DNA in Saturated Solution: 5000
[2]; vs 4'-hydroxymethyl trioxsalen
  times more strongly binding than 4'-hydroxymethyl trioxsalen: about 100 times
[2]; vs trioxsalen
  times more strongly binding to DNA than trioxsalen: about 8 times
[3]; [14]
  Kd: 20 µM
[3]; [15]
  (PS)/(S) for RNA in Saturated Solution: 1700
[4]
  solubility: 10000 µg/mL
[4]; molar
  solubility: 34 mM
[4]; vs 4'-hydroxymethyl trioxsalen
  times more soluble than 4'-hydroxymethyl trioxsalen: 150 times
[5]
  Extinction coefficient ε, 250 nm: 25000 L/mol/cm
[6]
  rate of reaction with DNA / initial rate of photochemical binding: reacts with DNA much faster than trioxsalen
[6]; 5 min irradiation
  A (footnote 1, shown as drawing 9): 15.0
  B = percent of added psoralen covalently bound: 19.3%
[6]; 10 min irradiation
  A (footnote 1, shown as drawing 9): 10.5
  B = percent of added psoralen covalently bound: 27.4%
[6]; 30 min irradiation
  A (footnote 1, shown as drawing 9): 6.9
  B = percent of added psoralen covalently bound: 41.8%
[6]; 60 min irradiation
  A (footnote 1, shown as drawing 9): 5.9
  B = percent of added psoralen covalently bound: 48.7%
[6]; 90 min irradiation
  A (footnote 1, shown as drawing 9): 5.5
  B = percent of added psoralen covalently bound: 52.4%
[6]; 90 minutes irradiation
  moles of psoralen bound per mole of base pairs: 0.18 moles per mole of base pairs
[6]; after 90 minutes of irradiation
  molecules in the solution covalently bound to DNA: over half
[7]; 20 min irradiation
  A (footnote 1, shown as drawing 10): 4.7
  B = percent of added psoralen covalently bound: 63.8%
[7]; 40 min irradiation
  A (footnote 1, shown as drawing 10): 4.8
  B = percent of added psoralen covalently bound: 62.5%
[7]; 60 min irradiation
  A (footnote 1, shown as drawing 10): 4.8
  B = percent of added psoralen covalently bound: 62.5%
[8]; 20 min irradiation
  A (footnote 1, shown as drawing 11): 5.1
  B = percent of added psoralen covalently bound: 59.4%
[8]; 40 min irradiation
  A (footnote 1, shown as drawing 11): 5.3
  B = percent of added psoralen covalently bound: 57.2%
[8]; 60 min irradiation
  A (footnote 1, shown as drawing 11): 5.3
  B = percent of added psoralen covalently bound: 57.3%
[9]; FIG. 2, 1-3 μg/ml, long wavelength UV
  inactivation of vesicular stomatitis virus, comparison in words: undisputed superiority
[9]; high dose rates, e.g., 30 μg/ml
  effectiveness in inactivation of vesicular stomatitis virus vs 4,5',8-trimethyl psoralen: nearly one thousand times more effective
[10]
  reactivity with DNA: excellent reactivity with DNA

## COc1c2occc2cc2ccc(=O)oc12 [8-methoxypsoralen, 8-methoxy psoralen]
[2]; saturated solution
  one psoralen per n base pairs at equilibrium (best achievable): ~20 base pairs
[5]
  Extinction coefficient ε, 250 nm: 19000 L/mol/cm
[11]
  Kd: 2.5 mM
[11]; saturated solution
  (PS)/(S) for DNA in Saturated Solution: 0.068
[12]
  Kd: 17 mM
[12]; saturated solution
  (PS)/(S) for RNA in Saturated Solution: 0.010
[13]
  solubility: 36 µg/mL
[13]; molar
  solubility: 170 µM
